Values after ≈ are worked out from the molar mass of the structure shown. Values joined by “and” are separate entries in the source; they are usually repeats but may differ in a detail not shown here. Identical values can stand only once. Like-named read-outs stand apart in the source and are kept apart here.
Columns and labels:
[1] = tested on: M. bovis BCG; assay type: cell-based, Mycobacterium bovis BCG
[2] = Mouse PK, combined (cassette) dosing of BGAz-001–005; assay type: in vivo, KM mice; set-up: AUMC(0-t) / VRT(0-t) / λz: unit not given here; conditions: for AUC(0-t): read-out: AUC(0-t); for MRT last: read-out: MRT(0-t); for MRT inf: read-out: MRT(0-∞); for Vd/F: read-out: Vz/F
Description: Methods for combined single dosing (BGAz001–005) and dosing of single compounds multiple times (BGAz004 and BGAz005) are described in detail in the Supporting Information (PK Data).
Report on PK Results of Combined Dosing with BGAz-001–005
1 Materials and instrument combined dosing
An MS2 Turnover type oscillator was purchased from IKA Work’s Guangzhou (China), and a 5415R ChromatographicanalyseswereconductedusinganAgilent1290InfinityIIhighperformanceliquidchromatography andAgilentTechnologies6470TripleQuadLC/MS.Propranolol(≥90%inpurity,internalstandard,IS)waspurchased fromtheSigmaChemicalCo.(China).Formicacid(HPLCgrade)andmethanol(HPLCgrade)werepurchasedfrom DIKMACo.(China).Allchemicalsandsolventswereanalyticalgrade.WaterwaspurifiedusingaMillipore(AK,USA) laboratoryultra-purewatersystem(0.2μmfilter).
KMmice,weighing25–35g(BeijingVitalRiverLaboratoryAnimalTechnologyCo.,Ltd.,China)wereutilisedforthe studies.The protocols were approved by the Animal Care and Use Committee, GIBH. Animals were maintained on standard animal chow and waterad libitum, in a climate-controlled room (23±1 °C 30–70% relative humidity, a minimumof tenexchangesof roomairperhouranda12hlight/darkcycle)foroneweekpriortoexperiments.
3 Pharmacokinetic studies
Compounds BGAz-001 ，BGAz-002 ，BGAz-003 ，BGAz-004 and BGAz-005 were dissolved mixed in a solution containing DMSO (2%),ethanol (4%), Cremophor EL (4%) and ddH2O (90%); Pharmacokinetic propertiesof KM (male) were determined following IV, PO and IP administration. Animals were randomly distributed into three experimentalgroups(n=4).ThePOgroupwasgivenmixedsolutionwith5mg/kgbygastricgavage.TheIVgroup was dosed with mixed solution 1mg/kg byinjection into the tail vein. The IP group was dosed with mixed solution 1mg/kg by intraperitoneal injection. After single administration, whole blood samples (100 μL) were obtained from the orbital venousplexus atthe followingtime pointsafter dosing:5, 15,30 minand 1,3, 5,8, 24hour (PO and IP groups) and at the following time points after dosing 2, 10, 30min and 1, 3, 5, 8,24 hour (IV group). Wholeblood samples were collected in heparinised tubes. The plasma fraction was immediately separated by centrifugation. The micewerehumanelyeuthanasiabycarbondioxide24hoursafterexperimentwithoutpain.
4 Plasma sample and brain sample analysis
4.1 Standard curve sample preparation
ThecompoundsweredissolvedinDMSO(2mg/mL)anddilutedwithtoseriesconcentration(methanol:H 2O,1:1,10 μL) and blank plasma (50 μL) were added to 1.5 mL tubes and vortexed for 3 min, then acetonitrile-containing internalstandard(150μL)wasaddedandvortexedforafurther5min,andsubsequentlyspuninacentrifugeat13000 […]
4.2 Plasma and preparation
Plasmasampleswerepreparedusingaproteinprecipitationmethod.Solution(10μL,methanolH 2O,1:1)andplasma samples(50μL)wereaddedto1.5mLtubesandvortexfor3min,thenacetonitrile-containinginternalstandard(150 μL)wasaddedandvortexfor5min,andsubsequentlyspuninacentrifugeat13000× gfor40minat4°C.
Aftercentrifugation,supernatant(100μL)wastransferto96wellplatesandanalysedbyLC-MS/MSusinganAgilent 1290InfinityIIHPLCandanAgilentTechnologies6470TripleQuadLC/MS.

[3] = tested on: BCG pTIC6-fbpB; assay type: cell-based, Mycobacterium bovis BCG
[4] = tested on: M. bovis BCG; assay: microbe, parasite or virus in culture; assay type: cell-based, Mycobacterium bovis BCG
[5] = IP 1 mg/kg, cassette, mean of animals
[6] = IV 1 mg/kg, cassette, mean of animals
[7] = PO 5 mg/kg, cassette, mean of animals
[8] = male, KM, mouse, plasma, IP 1 mg/kg, cassette
[9] = male, KM, mouse, plasma, IP 1 mg/kg, cassette, mean of animals
[10] = male, KM, mouse, plasma, IV 1 mg/kg, cassette
[11] = male, KM, mouse, plasma, IV 1 mg/kg, cassette, mean of animals
[12] = male, KM, mouse, plasma, PO 5 mg/kg, cassette
[13] = male, KM, mouse, plasma, PO 5 mg/kg, cassette, mean of animals

Brc1cc(Br)cc(C2CC(CN3CCCC3)N2Cc2ccccc2Br)c1 (centres unmarked) [BGAz-004]
log2FoldChange, gene BCG_0001 [1]: -0.1191
log2FoldChange, gene BCG_0002 [1]: -0.5569
log2FoldChange, gene BCG_0003 [1]: -0.5971
log2FoldChange, gene BCG_0004 [1]: -0.2384
log2FoldChange, gene BCG_0005 [1]: 0.5266
AUMC(0-t) [2, 5]: 3591.68 **μg
AUMC(0-∞) [2, 5]: 7580.816 **μg
CLz/F [2, 5]: 1.737 L/kg
C_last [2, 5]: 7.173 µg
R_AUC(t/∞) [2, 5]: 82.475%
VRT(0-t) [2, 5]: 44.576 ^2
VRT(0-∞) [2, 5]: 210.175 ^2
λz [2, 5]: 0.071 1/
AUC(0-∞) ([2]; IP 1 mg/kg, cassette, summary table): 581.359 µg·h
AUMC(0-t) [2, 6]: 5267.479 **μg
AUMC(0-∞) [2, 6]: 9388.553 **μg
CLz/F [2, 6]: 1.659 L/kg
C_last [2, 6]: 6.542 µg
R_AUC(t/∞) [2, 6]: 90.625%
VRT(0-t) [2, 6]: 43.967 ^2
VRT(0-∞) [2, 6]: 134.645 ^2
Vz/F [2, 6]: 17.622 L/kg
λz [2, 6]: 0.091 1/
AUC(0-∞) ([2]; IV 1 mg/kg, cassette, summary table): 789.43 µg·h
BA ([2]; PO 5 mg/kg vs IV 1 mg/kg, cassette): 35.64%
AUMC(0-t) [2, 7]: 7719.114 **μg
AUMC(0-∞) [2, 7]: 23536.035 **μg
CLz/F [2, 7]: 3.927 L/kg
C_last [2, 7]: 32.311 µg
R_AUC(t/∞) [2, 7]: 62.325%
VRT(0-t) [2, 7]: 36.246 ^2
VRT(0-∞) [2, 7]: 301.909 ^2
λz [2, 7]: 0.069 1/
AUC(0-∞) ([2]; PO 5 mg/kg, cassette, summary table): 1406.796 µg·h
AUC(0-inf) ([2]; male, KM, mouse, plasma, ip, 1 mg/kg, IP 1 mg/kg, cassette, mean of animals, read-out: AUC(0-∞)): 581 ng·h/mL
Cmax ([2]; male, KM, mouse, plasma, ip, 1 mg/kg, IP 1 mg/kg, cassette, mean of animals, read-out: Cmax): 61 ng/mL
Tmax ([2]; male, KM, mouse, plasma, ip, 1 mg/kg, IP 1 mg/kg, cassette, mean of animals, read-out: Tmax): 0.271 h
Cmax ([2]; male, KM, mouse, plasma, ip, 1 mg/kg, IP 1 mg/kg, cassette, summary table, read-out: Cmax): 61 ng/mL
half-life ([2]; male, KM, mouse, plasma, ip, 1 mg/kg, IP 1 mg/kg, cassette, summary table, read-out: T1/2 (converted)): 9.82 h
Tmax ([2]; male, KM, mouse, plasma, ip, 1 mg/kg, IP 1 mg/kg, cassette, summary table, read-out: Tmax): 0.271 h
AUC(0-inf) ([2]; male, KM, mouse, plasma, iv, 1 mg/kg, IV 1 mg/kg, cassette, mean of animals, read-out: AUC(0-∞)): 789 ng·h/mL
Cmax ([2]; male, KM, mouse, plasma, iv, 1 mg/kg, IV 1 mg/kg, cassette, mean of animals, read-out: Cmax): 278 ng/mL
Tmax ([2]; male, KM, mouse, plasma, iv, 1 mg/kg, IV 1 mg/kg, cassette, mean of animals, read-out: Tmax): 0.033 h
Cmax ([2]; male, KM, mouse, plasma, iv, 1 mg/kg, IV 1 mg/kg, cassette, summary table, read-out: Cmax): 278 ng/mL
half-life ([2]; male, KM, mouse, plasma, iv, 1 mg/kg, IV 1 mg/kg, cassette, summary table, read-out: T1/2 (converted)): 8.29 h
Tmax ([2]; male, KM, mouse, plasma, iv, 1 mg/kg, IV 1 mg/kg, cassette, summary table, read-out: Tmax): 0.033 h
AUC(0-inf) ([2]; male, KM, mouse, plasma, po, 5 mg/kg, 5 mg/kg PO, cassette dosing, read-out: AUC0-inf): 1410 ng·h/mL
Cmax ([2]; male, KM, mouse, plasma, po, 5 mg/kg, 5 mg/kg PO, cassette dosing, read-out: Cmax (Mouse, P.O.)): 87.6 ng/mL
half-life ([2]; male, KM, mouse, plasma, po, 5 mg/kg, 5 mg/kg PO, cassette dosing, read-out: T1/2 (Mouse, P.O.) (converted)): 11.4 h
Tmax ([2]; male, KM, mouse, plasma, po, 5 mg/kg, 5 mg/kg PO, cassette dosing, read-out: Tmax (Mouse, P.O.)): 0.87 h
AUC(0-inf) ([2]; male, KM, mouse, plasma, po, 5 mg/kg, PO 5 mg/kg, cassette, mean of animals, read-out: AUC(0-∞)): 1410 ng·h/mL
Cmax ([2]; male, KM, mouse, plasma, po, 5 mg/kg, PO 5 mg/kg, cassette, mean of animals, read-out: Cmax): 87.6 ng/mL
Tmax ([2]; male, KM, mouse, plasma, po, 5 mg/kg, PO 5 mg/kg, cassette, mean of animals, read-out: Tmax): 0.875 h
Cmax ([2]; male, KM, mouse, plasma, po, 5 mg/kg, PO 5 mg/kg, cassette, summary table, read-out: Cmax): 87.6 ng/mL
half-life ([2]; male, KM, mouse, plasma, po, 5 mg/kg, PO 5 mg/kg, cassette, summary table, read-out: T1/2 (converted)): 11.4 h
Tmax ([2]; male, KM, mouse, plasma, po, 5 mg/kg, PO 5 mg/kg, cassette, summary table, read-out: Tmax): 0.875 h
concentration at 0.083 h [2, 8]: 55.3 ng/mL and 100 nM
concentration at 0.25 h [2, 8]: 110 nM and 60.1 ng/mL
concentration at 0.5 h [2, 8]: 90 nM and 50.3 ng/mL
concentration at 1 h [2, 8]: 70 nM and 39.4 ng/mL
concentration at 3 h [2, 8]: 60 nM and 31 ng/mL
concentration at 5 h [2, 8]: 50 nM and 24.4 ng/mL
concentration at 8 h [2, 8]: 40 nM and 21.8 ng/mL
concentration at 24 h [2, 8]: 10 nM and 7.15 ng/mL
AUC(0-t) [2, 9]: 478 ng·h/mL
MRT last [2, 9]: 7.49 h
MRT inf [2, 9]: 12.9 h
Vd/F [2, 9]: 24.4 L/kg
concentration at 0.033 h ([2]; male, KM, mouse, plasma, IV 1 mg/kg, cassette, 0.033 h): 278 ng/mL and 520 nM
concentration at 0.167 h ([2]; male, KM, mouse, plasma, IV 1 mg/kg, cassette, 0.167 h): 270 nM and 148 ng/mL
concentration at 0.5 h [2, 10]: 160 nM and 84.6 ng/mL
concentration at 1 h [2, 10]: 170 nM and 89.6 ng/mL
concentration at 3 h [2, 10]: 80 nM and 40.5 ng/mL
concentration at 5 h [2, 10]: 50 nM and 28.3 ng/mL
concentration at 8 h [2, 10]: 40 nM and 21.6 ng/mL
concentration at 24 h [2, 10]: 30 nM and 15.1 ng/mL
C0 [2, 11]: 327 ng/mL
AUC(0-t) [2, 11]: 688 ng·h/mL
MRT last [2, 11]: 6.4 h
MRT inf [2, 11]: 9.25 h
concentration at 0.083 h [2, 12]: 17.3 ng/mL and 30 nM
concentration at 0.25 h [2, 12]: 80 nM and 42.6 ng/mL
concentration at 0.5 h [2, 12]: 120 nM and 65.1 ng/mL
concentration at 1 h [2, 12]: 160 nM and 84.4 ng/mL
concentration at 3 h [2, 12]: 130 nM and 68.4 ng/mL
concentration at 5 h [2, 12]: 120 nM and 63.3 ng/mL
concentration at 8 h [2, 12]: 110 nM and 60.5 ng/mL
concentration at 24 h [2, 12]: 40 nM and 22.2 ng/mL
AUC(0-t) [2, 13]: 945 ng·h/mL
MRT last [2, 13]: 6.82 h
MRT inf [2, 13]: 15.7 h
Vd/F [2, 13]: 58.1 L/kg
BCG pTIC6-fbpB MIC [3]: 28 µM
increase in MIC upon overexpression of FbpB [3]: two-fold increase
MIC99 ([4]; Mycobacterium tuberculosis variant bovis BCG, BCG, read-out: BCG MIC99): 14 µM (≈ 7.6 µg/mL)
MIC50 ([4]; Mycobacterium tuberculosis variant bovis BCG, BCG, read-out: MIC50 BCG): 15 µM (≈ 8.15 µg/mL)
MIC99 ([4]; Mycobacterium tuberculosis variant bovis BCG, BCG, read-out: MIC99 BCG): 14 µM (≈ 7.6 µg/mL)
increase in activity against M. bovis BCG compared to BGAz-001 ([4]; fold, from MIC99): approximately three- to four-fold increase
